# Laboratory results from article PMC10174618, “Monoterpenoid aryl hydrocarbon receptor allosteric antagonists protect against ultraviolet skin damage in female mice” (Nature Communications, 2023).
# Tests used:
# Assay in all cases: biochemical
# Design in all cases: KINOMEscan scanMAX active site-directed competition binding assay, percent of control, 468 kinases
# Details in all cases: competition binding, percent of control
# [1] = target: PRKCE (Homo sapiens, UniProt Q02156)
# Outline: (§1)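 Single-concentration screen (100 μM S-carvone) in a competition binding panel of 468 human kinases (KINOMEscan scanMAX); results given as percent of control, hit cutoff 35%.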
# [2] = target: CDK3 (Homo sapiens, UniProt Q00526)
# Outline: as §1
# [3] = target: DYRK2 (Homo sapiens, UniProt Q92630)
# Sequence of DYRK2 (Q92630 whole entry): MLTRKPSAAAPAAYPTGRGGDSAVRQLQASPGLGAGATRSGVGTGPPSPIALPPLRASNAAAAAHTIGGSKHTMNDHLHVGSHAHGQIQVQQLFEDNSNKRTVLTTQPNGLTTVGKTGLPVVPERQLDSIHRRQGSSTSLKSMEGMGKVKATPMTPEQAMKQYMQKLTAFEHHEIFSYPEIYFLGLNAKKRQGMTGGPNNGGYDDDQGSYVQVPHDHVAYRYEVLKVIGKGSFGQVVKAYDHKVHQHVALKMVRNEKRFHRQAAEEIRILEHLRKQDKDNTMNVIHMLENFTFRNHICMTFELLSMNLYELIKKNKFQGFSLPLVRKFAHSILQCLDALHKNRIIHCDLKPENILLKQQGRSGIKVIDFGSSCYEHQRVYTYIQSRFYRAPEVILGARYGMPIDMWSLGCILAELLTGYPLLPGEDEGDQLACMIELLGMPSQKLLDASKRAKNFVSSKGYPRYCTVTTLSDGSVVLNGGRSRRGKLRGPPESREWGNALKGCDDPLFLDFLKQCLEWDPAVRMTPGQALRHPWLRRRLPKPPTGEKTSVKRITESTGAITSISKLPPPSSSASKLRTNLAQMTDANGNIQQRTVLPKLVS
# Outline: as §1
# [4] = target: T1, RSK3(Kin.Dom.1-N-terminal) (Homo sapiens, UniProt Q15349)
# T1 construct: gene RPS6KA2; Kin.Dom.1-N-terminal
# Outline: as §1
# [5] = target: GRK1 (Homo sapiens, UniProt Q15835)
# Outline: as §1
# [6] = target: BMPR1B (Homo sapiens, UniProt O00238)
# Outline: as §1
# [7] = target: T2, TRKC (Homo sapiens, UniProt Q16288)
# T2 construct: gene NTRK3
# T2 sequence (Q16288 whole entry): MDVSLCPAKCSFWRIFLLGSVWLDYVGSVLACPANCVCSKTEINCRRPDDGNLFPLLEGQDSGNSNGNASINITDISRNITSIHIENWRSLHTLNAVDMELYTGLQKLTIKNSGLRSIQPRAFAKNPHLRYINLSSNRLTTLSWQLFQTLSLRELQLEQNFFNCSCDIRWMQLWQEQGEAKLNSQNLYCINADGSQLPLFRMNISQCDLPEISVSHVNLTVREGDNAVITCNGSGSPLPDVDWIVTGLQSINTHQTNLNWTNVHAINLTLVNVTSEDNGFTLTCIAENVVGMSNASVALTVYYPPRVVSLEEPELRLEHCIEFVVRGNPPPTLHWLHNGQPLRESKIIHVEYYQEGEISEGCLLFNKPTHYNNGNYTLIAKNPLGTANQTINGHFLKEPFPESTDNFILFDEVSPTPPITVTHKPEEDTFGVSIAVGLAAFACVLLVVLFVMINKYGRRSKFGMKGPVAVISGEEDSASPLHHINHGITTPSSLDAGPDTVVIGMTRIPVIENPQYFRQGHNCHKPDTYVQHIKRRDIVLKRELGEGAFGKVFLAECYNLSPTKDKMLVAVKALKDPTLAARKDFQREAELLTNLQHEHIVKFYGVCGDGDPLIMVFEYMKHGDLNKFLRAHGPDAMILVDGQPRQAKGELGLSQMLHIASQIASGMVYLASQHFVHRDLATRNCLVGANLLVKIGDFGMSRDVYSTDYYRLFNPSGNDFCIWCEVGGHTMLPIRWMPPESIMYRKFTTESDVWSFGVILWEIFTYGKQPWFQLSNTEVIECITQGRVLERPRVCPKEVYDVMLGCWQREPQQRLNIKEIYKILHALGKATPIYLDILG
# Outline: as §1
# [8] = target: CDKL3 (Homo sapiens, UniProt Q8IVW4)
# Outline: as §1
# [9] = target: MAP4K2 (Homo sapiens, UniProt Q12851)
# Outline: as §1
# [10] = target: GSK3A (Homo sapiens, UniProt P49840)
# Outline: as §1
# [11] = target: PHKG1 (Homo sapiens, UniProt Q16816)
# Outline: as §1
# [12] = target: T3, TRKB (Homo sapiens, UniProt Q16620)
# T3 construct: gene NTRK2
# Outline: as §1
# [13] = target: MAP4K3 (Homo sapiens, UniProt Q8IVH8)
# Sequence of MAP4K3 (Q8IVH8 whole entry): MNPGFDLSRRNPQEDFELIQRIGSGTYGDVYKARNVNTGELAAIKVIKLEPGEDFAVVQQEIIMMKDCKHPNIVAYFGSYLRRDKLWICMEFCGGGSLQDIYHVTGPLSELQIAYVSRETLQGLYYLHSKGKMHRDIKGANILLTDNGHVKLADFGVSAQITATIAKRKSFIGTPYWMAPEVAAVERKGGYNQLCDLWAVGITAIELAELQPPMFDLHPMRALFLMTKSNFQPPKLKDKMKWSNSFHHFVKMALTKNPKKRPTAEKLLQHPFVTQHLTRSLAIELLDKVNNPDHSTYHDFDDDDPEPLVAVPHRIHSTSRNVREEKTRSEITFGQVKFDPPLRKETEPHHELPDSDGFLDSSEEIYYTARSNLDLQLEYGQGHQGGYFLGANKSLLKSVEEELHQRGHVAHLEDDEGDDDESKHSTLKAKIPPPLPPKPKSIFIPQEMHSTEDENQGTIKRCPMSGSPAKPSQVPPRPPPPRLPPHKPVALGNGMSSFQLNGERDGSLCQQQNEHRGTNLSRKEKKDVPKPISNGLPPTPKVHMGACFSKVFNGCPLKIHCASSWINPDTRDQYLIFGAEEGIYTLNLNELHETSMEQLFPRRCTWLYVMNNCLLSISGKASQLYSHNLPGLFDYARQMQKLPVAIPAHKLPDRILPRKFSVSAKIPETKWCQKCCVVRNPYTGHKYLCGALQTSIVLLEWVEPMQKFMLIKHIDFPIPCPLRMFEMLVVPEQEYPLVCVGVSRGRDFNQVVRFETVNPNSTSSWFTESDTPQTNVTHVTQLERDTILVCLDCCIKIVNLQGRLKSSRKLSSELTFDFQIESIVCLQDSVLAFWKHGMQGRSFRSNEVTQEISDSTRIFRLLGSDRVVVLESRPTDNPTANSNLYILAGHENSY
# Outline: as §1
# [14] = target: NEK1 (Homo sapiens, UniProt Q96PY6)
# Sequence of NEK1 (Q96PY6 whole entry): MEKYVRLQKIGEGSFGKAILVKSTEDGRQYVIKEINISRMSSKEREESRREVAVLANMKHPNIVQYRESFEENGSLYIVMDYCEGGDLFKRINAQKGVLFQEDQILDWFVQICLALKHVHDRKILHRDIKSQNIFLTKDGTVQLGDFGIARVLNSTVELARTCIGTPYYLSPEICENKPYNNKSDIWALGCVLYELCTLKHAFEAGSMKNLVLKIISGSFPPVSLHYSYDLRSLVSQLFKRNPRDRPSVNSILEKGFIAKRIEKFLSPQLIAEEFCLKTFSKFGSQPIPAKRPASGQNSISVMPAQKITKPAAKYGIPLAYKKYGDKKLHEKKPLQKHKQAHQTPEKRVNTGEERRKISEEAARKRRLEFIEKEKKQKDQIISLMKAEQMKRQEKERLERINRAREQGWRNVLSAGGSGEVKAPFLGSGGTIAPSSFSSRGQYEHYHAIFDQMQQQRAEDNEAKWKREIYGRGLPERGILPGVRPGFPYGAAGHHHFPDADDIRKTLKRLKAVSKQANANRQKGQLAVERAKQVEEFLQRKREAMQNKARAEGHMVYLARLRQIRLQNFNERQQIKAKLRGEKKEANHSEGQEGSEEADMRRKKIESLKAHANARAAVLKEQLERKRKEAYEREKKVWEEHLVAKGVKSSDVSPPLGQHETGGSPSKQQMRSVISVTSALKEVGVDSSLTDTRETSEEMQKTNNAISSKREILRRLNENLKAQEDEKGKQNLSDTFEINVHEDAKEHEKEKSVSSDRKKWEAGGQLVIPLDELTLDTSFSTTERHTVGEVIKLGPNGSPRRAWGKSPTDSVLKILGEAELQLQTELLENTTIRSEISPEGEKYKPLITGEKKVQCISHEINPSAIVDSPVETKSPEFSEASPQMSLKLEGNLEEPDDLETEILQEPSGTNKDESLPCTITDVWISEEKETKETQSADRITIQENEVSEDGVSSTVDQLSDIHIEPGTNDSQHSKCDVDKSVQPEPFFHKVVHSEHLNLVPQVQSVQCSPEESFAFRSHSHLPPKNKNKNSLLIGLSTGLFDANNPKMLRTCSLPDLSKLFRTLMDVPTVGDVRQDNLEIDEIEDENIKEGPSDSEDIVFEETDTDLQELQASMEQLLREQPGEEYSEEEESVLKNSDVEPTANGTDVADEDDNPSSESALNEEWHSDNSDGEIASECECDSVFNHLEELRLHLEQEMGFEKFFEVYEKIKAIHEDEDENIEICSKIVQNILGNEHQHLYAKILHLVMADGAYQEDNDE
# Outline: as §1
# [15] = target: T4, p38-gamma (Homo sapiens, UniProt P53778)
# T4 construct: gene MAPK12
# Outline: as §1
# [16] = target: FGFR2 (Homo sapiens, UniProt P21802)
# Sequence of FGFR2 (P21802 whole entry): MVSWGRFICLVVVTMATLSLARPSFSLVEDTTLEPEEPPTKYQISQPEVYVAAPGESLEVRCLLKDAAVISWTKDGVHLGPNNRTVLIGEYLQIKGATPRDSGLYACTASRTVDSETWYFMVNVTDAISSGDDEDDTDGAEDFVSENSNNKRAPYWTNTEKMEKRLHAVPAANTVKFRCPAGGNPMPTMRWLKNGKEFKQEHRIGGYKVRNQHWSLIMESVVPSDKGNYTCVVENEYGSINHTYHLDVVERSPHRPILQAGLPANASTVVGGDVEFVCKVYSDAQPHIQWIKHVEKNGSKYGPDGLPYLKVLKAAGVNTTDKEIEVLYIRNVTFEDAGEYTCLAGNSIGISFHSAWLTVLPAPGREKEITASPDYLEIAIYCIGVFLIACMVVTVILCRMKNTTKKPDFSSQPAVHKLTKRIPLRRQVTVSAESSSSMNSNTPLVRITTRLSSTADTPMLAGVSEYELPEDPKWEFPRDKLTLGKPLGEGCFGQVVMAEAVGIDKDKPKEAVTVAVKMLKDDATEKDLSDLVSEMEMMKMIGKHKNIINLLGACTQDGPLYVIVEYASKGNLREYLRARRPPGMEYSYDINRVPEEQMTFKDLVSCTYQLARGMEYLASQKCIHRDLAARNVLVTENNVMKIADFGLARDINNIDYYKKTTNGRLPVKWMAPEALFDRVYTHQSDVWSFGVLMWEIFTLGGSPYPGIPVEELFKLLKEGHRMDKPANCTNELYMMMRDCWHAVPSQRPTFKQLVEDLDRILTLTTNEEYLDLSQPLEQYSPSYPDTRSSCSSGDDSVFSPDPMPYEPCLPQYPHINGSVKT
# Outline: as §1
# [17] = target: GRK4 (Homo sapiens, UniProt P32298)
# Outline: as §1
# [18] = target: SRC (Homo sapiens, UniProt P12931)
# Outline: as §1
# [19] = target: T5, DRAK1 (Homo sapiens, UniProt Q9UEE5)
# T5 construct: gene STK17A
# T5 sequence (Q9UEE5 whole entry): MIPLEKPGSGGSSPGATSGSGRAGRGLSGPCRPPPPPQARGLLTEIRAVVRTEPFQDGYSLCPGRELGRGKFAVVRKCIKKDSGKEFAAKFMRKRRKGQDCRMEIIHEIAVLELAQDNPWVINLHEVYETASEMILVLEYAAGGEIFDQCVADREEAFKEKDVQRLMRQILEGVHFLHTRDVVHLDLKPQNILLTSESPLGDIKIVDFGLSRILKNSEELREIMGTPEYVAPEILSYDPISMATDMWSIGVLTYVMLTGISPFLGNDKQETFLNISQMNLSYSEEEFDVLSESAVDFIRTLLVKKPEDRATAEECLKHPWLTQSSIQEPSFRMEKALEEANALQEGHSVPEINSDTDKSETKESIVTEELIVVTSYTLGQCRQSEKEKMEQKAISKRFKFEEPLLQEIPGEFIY
# Outline: as §1
# [20] = target: T6, ABL1(F317L)-phosphorylated (Homo sapiens, UniProt P00519, F317L)
# T6 construct: phosphorylated
# Outline: as §1
# [21] = target: PIK3C2B (Homo sapiens, UniProt O00750)
# Outline: as §1
# [22] = target: AKT2 (Homo sapiens, UniProt P31751)
# Outline: as §1
smiles,measurement,setting,value
C=C(C)[C@H]1CC=C(C)C(=O)C1 [S-carvone],remaining binding at 100 µM,[1],94%
same,remaining binding at 100 µM,[2],92%
same,remaining binding at 100 µM,[3],93%
same,remaining binding at 100 µM,[4],94%
same,remaining binding at 100 µM,[5],74%
same,remaining binding at 100 µM,[6],74%
same,remaining binding at 100 µM,[7],82%
same,remaining binding at 100 µM,[8],89%
same,remaining binding at 100 µM,[9],94%
same,remaining binding at 100 µM,[10],100%
same,remaining binding at 100 µM,[11],100%
same,remaining binding at 100 µM,[12],78%
same,remaining binding at 100 µM,[13],90%
same,remaining binding at 100 µM,[14],94%
same,remaining binding at 100 µM,[15],72%
same,remaining binding at 100 µM,[16],80%
same,remaining binding at 100 µM,[17],66%
same,remaining binding at 100 µM,[18],77%
same,remaining binding at 100 µM,[19],100%
same,remaining binding at 100 µM,[20],93%
same,remaining binding at 100 µM,[21],72%
same,remaining binding at 100 µM,[22],86%
